Results from PubChem BioAssay AID1919003 (Molecular Pharmacology Branch, DTP, NCI, 2023).
pIC50: −log10 of the molar value.

System: 786-0 complex spheroids with HUVEC/MSC, growth % test/control
Assay: Anticancer human tumor 786-0 cell line growth inhibition [AhR];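 also: compound exposure lasted seven days before the read-out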
Settings: for pIC50: curve of first compound; for viability, T/C: stronger effect = lower value
How it was run: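 Spheroids combined tumor cells with HUVEC endothelial cells and human MSCs as stroma. AhR antagonists were paired with standard or investigational drugs, each dosed in half-log steps down from near clinical Cmax, or from 10 microM where Cmax was unknown.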

[1] = second compound 0.1 µM, first compound 0.0316 µM
[2] = second compound 0.1 µM, first compound 0.1 µM
[3] = second compound 0.1 µM, first compound 0.316 µM
[4] = second compound 0.1 µM, first compound 1 µM
[5] = second compound 0.1 µM, first compound 3.16 µM
[6] = second compound 0.1 µM, first compound 10 µM
[7] = second compound 0.316 µM, first compound 0.0316 µM
[8] = second compound 0.316 µM, first compound 0.1 µM
[9] = second compound 0.316 µM, first compound 0.316 µM
[10] = second compound 0.316 µM, first compound 1 µM
[11] = second compound 0.316 µM, first compound 3.16 µM
[12] = second compound 0.316 µM, first compound 10 µM
[13] = second compound 1 µM, first compound 0.0316 µM
[14] = second compound 1 µM, first compound 0.1 µM
[15] = second compound 1 µM, first compound 0.316 µM
[16] = second compound 1 µM, first compound 1 µM
[17] = second compound 1 µM, first compound 3.16 µM
[18] = second compound 1 µM, first compound 10 µM
[19] = second compound 3.16 µM, first compound 0.0316 µM
[20] = second compound 3.16 µM, first compound 0.1 µM
[21] = second compound 3.16 µM, first compound 0.316 µM
[22] = second compound 3.16 µM, first compound 1 µM
[23] = second compound 3.16 µM, first compound 3.16 µM
[24] = second compound 3.16 µM, first compound 10 µM
[25] = second compound 10 µM, first compound 0.0316 µM
[26] = second compound 10 µM, first compound 0.1 µM
[27] = second compound 10 µM, first compound 0.316 µM
[28] = second compound 10 µM, first compound 1 µM
[29] = second compound 10 µM, first compound 3.16 µM
[30] = second compound 10 µM, first compound 10 µM

SMILES	pIC50 (second compound 0.1 µM)	pIC50 (second compound 0.316 µM)	pIC50 (second compound 1 µM)	pIC50 (second compound 3.16 µM)	pIC50 (second compound 10 µM)	viability, T/C [1] [%]	viability, T/C [2] [%]	viability, T/C [3] [%]	viability, T/C [4] [%]	viability, T/C [5] [%]	viability, T/C [6] [%]	viability, T/C [7] [%]	viability, T/C [8] [%]	viability, T/C [9] [%]	viability, T/C [10] [%]	viability, T/C [11] [%]	viability, T/C [12] [%]	viability, T/C [13] [%]	viability, T/C [14] [%]	viability, T/C [15] [%]	also measured
COc1cc(Nc2ncc3c(n2)-c2ccc(Cl)cc2C(c2c(F)cccc2OC)=NC3)ccc1C(=O)O + Cc1ccccc1N=Nc1ccc(NC(=O)c2ccnn2C)c(C)c1	5.38	5.44	5.42	5.32	5.27	98.7	109	117	84.7	58.3	30.1	107	107	133	91.6	55.1	28.7	108	109	121	viability, T/C [16]: 89.2%; viability, T/C [17]: 55.5%; viability, T/C [18]: 30.2%; viability, T/C [19]: 95.8%; viability, T/C [20]: 98.4%; viability, T/C [21]: 103%; viability, T/C [22]: 82.3%; viability, T/C [23]: 63.2%; viability, T/C [24]: 29.2%; viability, T/C [25]: 83.3%; viability, T/C [26]: 85.3%; viability, T/C [27]: 106%; viability, T/C [28]: 91.8%; viability, T/C [29]: 60.2%; viability, T/C [30]: 38.2%
CC(C)c1c(-c2ccccc2)nc2c(C#N)c[nH]n2c1=O + Cc1ccccc1N=Nc1ccc(NC(=O)c2ccnn2C)c(C)c1	< 5.00	< 5.00	< 5.00	< 5.00	< 5.00	93.9	99.9	99.5	101	92.1	99	90.1	93.4	97.1	95.5	92.6	95.2	94.6	92.8	114	viability, T/C [16]: 98.6%; viability, T/C [17]: 96.3%; viability, T/C [18]: 88.9%; viability, T/C [19]: 86.8%; viability, T/C [20]: 85.3%; viability, T/C [21]: 89.6%; viability, T/C [22]: 82.8%; viability, T/C [23]: 85%; viability, T/C [24]: 84.2%; viability, T/C [25]: 86.6%; viability, T/C [26]: 83.9%; viability, T/C [27]: 84.5%; viability, T/C [28]: 82.4%; viability, T/C [29]: 83.1%; viability, T/C [30]: 79.5%
COc1cc(C2c3cc4c(cc3C(OC3OC5COC(C)OC5C(O)C3O)C3COC(=O)C23)OCO4)cc(OC)c1O (stereo not given) + CC(CO)NC(=O)c1cc(-c2ccc(Cl)cc2)nn(-c2cnn(C)c2)c1=O	6.22	6.29	6.37	6.63	6.59	89.7	82	74.2	29.7	18.8	5.08	66	72.5	69.1	24.9	13.1	6.05	79.1	94.9	58.7	viability, T/C [16]: 20.2%; viability, T/C [17]: 16%; viability, T/C [18]: 4.53%; viability, T/C [19]: 83.7%; viability, T/C [20]: 65.6%; viability, T/C [21]: 44.8%; viability, T/C [22]: 24.4%; viability, T/C [23]: 17.5%; viability, T/C [24]: 5.67%; viability, T/C [25]: 88.3%; viability, T/C [26]: 78.8%; viability, T/C [27]: 40.2%; viability, T/C [28]: 22.2%; viability, T/C [29]: 13.9%; viability, T/C [30]: 3.72%
COc1cccc2c1C(=O)c1c(O)c3c(c(O)c1C2=O)CC(O)(C(=O)CO)CC3OC1CC(N)C(O)C(C)O1 (stereo not given) + CC(CO)NC(=O)c1cc(-c2ccc(Cl)cc2)nn(-c2cnn(C)c2)c1=O	7.37	> 7.50	7.34	> 7.50	> 7.50	54.4	37.9	12.5	2.51	0.63	0.56	46.7	40	14.3	3.11	0.25	0.6	54.3	40.6	11.6	viability, T/C [16]: 3.23%; viability, T/C [17]: 0.45%; viability, T/C [18]: 0.49%; viability, T/C [19]: 47.4%; viability, T/C [20]: 42.3%; viability, T/C [21]: 10.9%; viability, T/C [22]: 3.69%; viability, T/C [23]: 0.34%; viability, T/C [24]: 0.41%; viability, T/C [25]: 44.9%; viability, T/C [26]: 37.5%; viability, T/C [27]: 11.2%; viability, T/C [28]: 1.48%; viability, T/C [29]: 0.72%; viability, T/C [30]: 0.86%
COc1ccc([C@@H](O)c2cc(-c3ncnc4cc(N5CCOCC5)ccc34)c(F)cc2Cl)nn1 + Cc1ccccc1N=Nc1ccc(NC(=O)c2ccnn2C)c(C)c1	< 5.00	< 5.00	< 5.00	< 5.00	5.02	90.6	96	99.4	102	102	79.9	97.6	102	99.2	100	106	87.1	86.4	93.3	96	viability, T/C [16]: 105%; viability, T/C [17]: 97.1%; viability, T/C [18]: 77.4%; viability, T/C [19]: 84.8%; viability, T/C [20]: 87.1%; viability, T/C [21]: 82.9%; viability, T/C [22]: 84.1%; viability, T/C [23]: 89.3%; viability, T/C [24]: 63.9%; viability, T/C [25]: 96.9%; viability, T/C [26]: 90.2%; viability, T/C [27]: 81.9%; viability, T/C [28]: 86.1%; viability, T/C [29]: 72.8%; viability, T/C [30]: 48.2%
